Laboratory results from patent publication US8436011B2, “Pyridinopyridinone derivatives, preparation thereof and therapeutic use thereof” (Sanofi, priority 2008, dated 2013).

Target: T1, FLT3 receptor (MV4-11 cell line bearing an FLT3ITD mutant) (Homo sapiens, UniProt P36888, INS600HVDFREYEYD)
T1 construct: MV4-11 cell line, which line is established from a leukaemia of constitutively active AML type bearing an FLT3ITD mutant; endogenous in cells; host or cells: MV4-11
T1 sequence (P36888 with tags, fused parts or gaps INS600HVDFREYEYD): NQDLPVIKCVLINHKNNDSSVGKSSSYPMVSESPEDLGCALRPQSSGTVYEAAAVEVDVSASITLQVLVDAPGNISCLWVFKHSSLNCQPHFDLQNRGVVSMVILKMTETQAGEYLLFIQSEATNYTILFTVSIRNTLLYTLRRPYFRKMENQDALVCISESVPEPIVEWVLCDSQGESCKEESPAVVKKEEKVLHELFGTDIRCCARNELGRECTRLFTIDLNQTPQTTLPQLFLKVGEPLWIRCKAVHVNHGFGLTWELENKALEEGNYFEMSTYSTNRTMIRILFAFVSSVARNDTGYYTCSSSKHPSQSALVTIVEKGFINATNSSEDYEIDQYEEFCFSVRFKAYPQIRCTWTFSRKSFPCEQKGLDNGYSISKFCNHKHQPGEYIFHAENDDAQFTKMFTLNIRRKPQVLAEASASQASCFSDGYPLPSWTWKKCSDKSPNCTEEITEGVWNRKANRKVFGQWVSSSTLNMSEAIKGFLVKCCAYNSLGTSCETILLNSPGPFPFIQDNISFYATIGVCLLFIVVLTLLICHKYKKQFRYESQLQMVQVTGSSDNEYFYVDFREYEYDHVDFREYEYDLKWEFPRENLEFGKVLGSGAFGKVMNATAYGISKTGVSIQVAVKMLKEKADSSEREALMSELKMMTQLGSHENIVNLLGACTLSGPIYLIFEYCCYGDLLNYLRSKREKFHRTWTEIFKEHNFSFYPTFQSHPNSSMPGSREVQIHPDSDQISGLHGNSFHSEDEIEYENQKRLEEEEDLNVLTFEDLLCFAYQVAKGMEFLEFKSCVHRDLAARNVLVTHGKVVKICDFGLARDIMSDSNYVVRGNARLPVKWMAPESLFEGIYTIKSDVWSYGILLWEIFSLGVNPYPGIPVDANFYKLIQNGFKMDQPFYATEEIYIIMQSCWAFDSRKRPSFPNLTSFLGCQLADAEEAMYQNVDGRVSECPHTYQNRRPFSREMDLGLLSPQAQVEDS
Assay: Inhibition of FLT3 receptor tyrosine kinase activity: proliferation of MV4-11 cells (CellTiter-Glo, 72 h)
Format: cell-based
Details: 72 hours incubation, read-out: IC50 (concentration that inhibits 50% of the proliferation of the MV4-11 cells)
Experimental: Measurement of Inhibition of the Tyrosine Kinase Activity of the FLT3 Receptor
The inhibitory effect of the compounds according to the invention towards the tyrosine kinase activity of the FLT3 receptor was evaluated on an MV4-11 cell line, which line is established from a leukaemia of constitutively active AML type bearing an FLT3ITD mutant. The inhibitory activity is correlated to the inhibition of cell growth, according to the protocols described by Spiekermann, K. et al., Blood, 2003, 101, (4) 1494-1504 and O'Farrell, A.-M. et al., Blood, 2003, 101, (9) 3597-3605.
MV4-11 cells are washed with PBS buffer and inoculated in 96-well plates, at a density of 1×10^5 cells/ml (100 μL per well), in RPMI 1640 containing 10% FCS, in the presence or absence of the test compounds. After incubation for 72 hours, the viable cells are quantified by measuring the cellular ATP by means of the CellTiter-Glo® kit (Promega, Cat G7571). The cells are treated according to the instructions given by the kit manufacturer, and the luminescence is measured using a Luminoskan (Ascent, Labsystem) with the following parameters: measurement: single; integration time: 1000 ms, lag time: 5 s.
The inhibitory activity with respect to the FLT3 receptor is given by the concentration that inhibits 50% of the proliferation of the MV4-11 cells.

`CCN1CC(F)(F)C[C@H]1CNC(=O)Cc1ccc(-c2ccc3c(=O)c(C(=O)NC)c(N)n(CC)c3n2)cc1` [compound 24, 2-amino-1-ethyl-7-{4-[2-({[(2S)-1-ethyl-4,4-difluoropyrrolidin-2-yl]methyl}-amino)-2-oxoethyl]phenyl}-N-methyl-4-oxo-1,4-dihydro-1,8-naphthyridine-3-carboxamide] gave an IC50 of 0.19 µM.
With `CCn1c(N)c(C(=O)NC)c(=O)c2ccc(-c3ccc(CC(=O)NCC4COCCN4C4CC4)cc3)nc21` (centres unmarked) [compound 33, 2-amino-7-[4-(2-{[(4-cyclopropylmorpholin-3-yl)methyl]amino}-2-oxoethyl)phenyl]-1-ethyl-N-methyl-4-oxo-1,4-dihydro-1,8-naphthyridine-3-carboxamide] the IC50 was 0.056 µM.
